Measured values taken from PMC11466185, “Mechanisms and efficacy of small molecule latency-promoting agents to inhibit HIV reactivation ex vivo” (JCI Insight, 2024).

Test system: HIV transcripts (TAR, LLTR, Pol, PolyA, TatRev)
Assay: Baseline HIV transcription without activation, PBMCs from ART-suppressed PWH, 24 hours
Type: cell-based
Details: no activation; for LLTR HIV transcripts (DMSO = 100) / Pol HIV transcripts (DMSO = 100) / PolyA HIV transcripts (DMSO = 100) / Tat-Rev HIV transcripts (DMSO = 100) / PolyA/LLTR ratio (DMSO = 1) / TatRev/PolyA ratio (DMSO = 1) / TAR HIV transcripts (DMSO = 100) / LLTR/TAR ratio (DMSO = 1): ruxolitinib 4μM, dinaciclib 8nM, AZD4573 8nM, KRIBB11 2.5μM; for LLTR HIV transcripts (DMSO = 100) / Pol HIV transcripts (DMSO = 100) / PolyA HIV transcripts (DMSO = 100) / Tat-Rev HIV transcripts (DMSO = 100) / TAR HIV transcripts (DMSO = 100): pladienolide B 10nM; for PolyA/LLTR ratio (DMSO = 1) / TatRev/PolyA ratio (DMSO = 1) / LLTR/TAR ratio (DMSO = 1): pladienolide B
Experimental: For a selection of the compounds, we evaluated the ability to reduce baseline HIV transcription without activation. PBMCs were cultured in the presence of individual drugs in DMSO or DMSO alone as a control and harvested after 24 hours. For each drug, we tested PBMCs from at least 3 PWH, as indicated in Supplemental Figure 5B. […] Likewise, pladienolide B appeared to reduce the level of multiply spliced transcripts (33%, Supplemental Figure 5, A and B).
PBMCs were isolated from fresh venous blood from 16 ART-suppressed HIV-infected study participants using Ficoll density gradient centrifugation. The cells were seeded at 6 × 10^6 cells/well and cultured with antiretrovirals (nevirapine and indinavir) to prevent new infection. On the next day, PBMCs were activated with anti-CD3/CD28–coated beads (Invitrogen) in the presence of 20 U/mL IL-2 and individual drugs in DMSO or DMSO alone as a control. Since we were limited in the PBMC yield per study participant, different study participants were used for different experiments (such as the initial screen, dose response, different time points, and studies in activated vs. unstimulated cells). In addition, the yields of PBMCs were sometimes insufficient to test all drugs for a given question or experiment.
Total cellular DNA and RNA were extracted in parallel using Trireagent (Molecular Research Center) according to the manufacturer’s instructions, except for study participants 2147 and 2461 (Figure 4), for whom DNA and RNA were extracted using the QIAGEN AllPrep DNA/RNA/miRNA Universal Kit with on-column DNase I treatment of the RNA and the manufacturer’s modification to enhance recovery of short transcripts. RNA and DNA concentrations were measured using UV spectrophotometry (NanoDrop One, Thermo Fisher Scientific). Total initiated HIV (TAR) transcripts were quantified by a 3-step polyadenylation RT-ddPCR as described previously ([8], [84]). HIV 5′ elongated (LLTR), midtranscribed (Pol), completed (PolyA), and multiply spliced (TatRev) transcripts were quantified by a 2-step RT-ddPCR as previously described ([8]). The levels of each HIV transcript were normalized to 1 μg of total cellular RNA and expressed as a percentage of the (activated) DMSO control. To quantify virion-associated RNA in supernatant, RNA was extracted from 400 μL supernatant using Trireagent-LS (Molecular Research Center) according to the manufacturer’s instructions. Levels of U3-polyadenylated HIV RNA were measured in the supernatant by RT-ddPCR, normalized to copies/mL, and expressed as a percentage of the activated DMSO. For measuring the HIV infection frequency at day 6, the HIV DNA U3-U5 LTR region was quantified by using ddPCR as described previously ([8]). HIV DNA copies were normalized to cell numbers according to the mass of DNA input per well (calculated from the DNA concentration and input volume) ([85]).
Figure S5. CDK-inhibitors appear to decrease baseline HIV splicing even in the absence of T cell activation. Each drug was tested in PBMCs from at least three ART-suppressed study participants and PBMCs were aliquoted into wells at 6x10^6 cells/well. The cells were cultured with antiretrovirals but without activation in the presence of individual drugs in (1 picture or pasted object on this page, not shown here)
DMSO or DMSO alone as control. After 24h, total RNA was extracted and the progression through different stages of HIV transcription was quantified by measuring the levels of initiated (TAR), 5’ elongated (LLTR), mid-transcribed/unspliced (Pol), completed (PolyA) and multiply spliced (TatRev) HIV transcripts. A-B) The levels of all HIV transcripts were quantified, normalized to 1 µg of total cellular RNA, and expressed as a percent of the DMSO control (% of DMSO). A) Medians are shown, as well as the values of the individual study participants in different colors. B) The medians from panel A) are presented. The effect of each drug on the different transcripts was studied in three to six study participants, as […]

Compound | LLTR HIV transcripts (DMSO = 100) (participant 156) | Pol HIV transcripts (DMSO = 100) (participant 156) | PolyA HIV transcripts (DMSO = 100) (participant 156) | Tat-Rev HIV transcripts (DMSO = 100) (participant 156) | LLTR HIV transcripts (DMSO = 100) (participant 163) | Pol HIV transcripts (DMSO = 100) (participant 163) | PolyA HIV transcripts (DMSO = 100) (participant 163) | Tat-Rev HIV transcripts (DMSO = 100) (participant 163) | LLTR HIV transcripts (DMSO = 100) (participant 1379) | Pol HIV transcripts (DMSO = 100) (participant 1379) | PolyA HIV transcripts (DMSO = 100) (participant 1379) | TAR HIV transcripts (DMSO = 100) (participant 1379) | LLTR HIV transcripts (DMSO = 100) (participant 2027) | Pol HIV transcripts (DMSO = 100) (participant 2027) | PolyA HIV transcripts (DMSO = 100) (participant 2027) | TAR HIV transcripts (DMSO = 100) (participant 2027) | further results
pladienolide B | 85.34 | 133.38 | 150.05 | 66.69 | 92.55 | 107.42 | 106.43 | 0 | 18.62 | 16.13 | 25.8 | 228.89 | 81.44 | 43.71 | 90.63 | 125.58 | Multiply spliced HIV transcripts without activation, median relative to DMSO (24 hours, at least 3 PWH): 33%; HIV splicing (TatRev/PolyA) without activation (24 hours, not statistically significant): severely reduce; PolyA/LLTR ratio (DMSO = 1) (participant 156): 1.758; TatRev/PolyA ratio (DMSO = 1) (participant 156): 0.4444; PolyA/LLTR ratio (DMSO = 1) (participant 163): 1.15; TatRev/PolyA ratio (DMSO = 1) (participant 163): 0; LLTR/TAR ratio (DMSO = 1) (participant 1379): 0.08133; PolyA/LLTR ratio (DMSO = 1) (participant 1379): 1.3861; LLTR/TAR ratio (DMSO = 1) (participant 2027): 0.6485; PolyA/LLTR ratio (DMSO = 1) (participant 2027): 1.113
N#CC[C@H](C1CCCC1)n1cc(-c2ncnc3[nH]ccc23)cn1 [ruxolitinib] | 91.78 | 118.18 | 108.3 | 167.91 | 148.94 | 91.9 | 183.43 | 0 | 49.44 | 31.32 | 9.4 | 170 | 57.36 | 74.54 | 109.96 | 90.7 | HIV transcription levels in the absence of T cell activation (in words) (24 hours, at least 3 PWH): little effect
